Test results taken from paper PMC5933782, “Molecular structures of cdc2-like kinases in complex with a new inhibitor chemotype” (PLoS ONE, 2018).
Structures can show the parent of a compound that is named as a salt.

Tests used:
[1] = biological target: CDK1/cyclin B; test: radiometric protein kinase assay; assay type: biochemical, starfish; conditions: for IC50: 15 μmol/L ATP; for Residual enzyme activity CDK1/cyclin B: 10 µM concentration, ± SEM
[2] = biological target: CLK2 (Mus musculus, UniProt O35491); test: radiometric protein kinase assay; conditions: for Residual enzyme activity CLK 2: 10 µM concentration, ± SEM
Sequence of CLK2 (O35491 whole entry): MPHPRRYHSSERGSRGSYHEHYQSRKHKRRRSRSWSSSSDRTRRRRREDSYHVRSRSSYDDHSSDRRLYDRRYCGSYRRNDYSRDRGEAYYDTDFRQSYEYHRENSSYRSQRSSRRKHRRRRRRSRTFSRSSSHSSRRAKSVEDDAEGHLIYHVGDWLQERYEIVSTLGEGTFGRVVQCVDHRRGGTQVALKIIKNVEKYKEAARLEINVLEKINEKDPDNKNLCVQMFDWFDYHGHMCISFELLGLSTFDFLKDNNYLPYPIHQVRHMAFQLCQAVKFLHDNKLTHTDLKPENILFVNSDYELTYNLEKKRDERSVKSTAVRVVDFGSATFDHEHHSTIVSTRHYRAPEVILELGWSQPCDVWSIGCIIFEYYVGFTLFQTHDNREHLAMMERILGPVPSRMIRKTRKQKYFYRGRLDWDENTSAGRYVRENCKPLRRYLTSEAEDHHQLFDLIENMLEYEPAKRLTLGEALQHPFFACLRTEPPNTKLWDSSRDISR
Method: (§1) Buffers. Buffer A: 10 mM MgCl2, 1 mM EGTA, 1 mM DTT, 25 mM Tris-HCl pH 7.5, 50 μg heparin/mL. Buffer C: 60 mM β-glycerophosphate, 15 mM p-nitrophenylphosphate, 25 mM MOPS (pH 7.2), 15 mM EGTA, 15 mM MgCl2, 1 mM DTT, 1 mM sodium vanadate, 1 mM phenylphosphate.
(§2) Kinase activities were assayed in buffer A or C at 30°C at a final ATP concentration of 15 μmol/L. Blank values were subtracted and activities were expressed in percent of the maximal activity, i.e. in the absence of inhibitors. Controls were performed with appropriate dilutions of DMSO.
(§3) Their kinase activity was assayed in buffer A, with 1 mg histone H1/mL, in the presence of 15 μmol/L [γ-33P] ATP (3,000 Ci/mmol; 10 mCi/mL) in a final volume of 30 μL. After 30 min incubation at 30°C, the reaction was stopped by harvesting onto P81 phosphocellulose supernatant (Whatman) using a FilterMate harvester (Packard) and washing in 1% phosphoric acid. Scintillation fluid was added and the radioactivity measured in a Packard counter.
(§4) All data points for construction of dose response curves were recorded in triplicate.

[3] = biological target: CDK9/cyclin T (Homo sapiens, UniProt P50750); test: radiometric protein kinase assay; conditions: for Residual enzyme activity CDK9/cyclin T: 10 µM concentration, ± SEM
Sequence of CDK9/cyclin T (P50750 whole entry): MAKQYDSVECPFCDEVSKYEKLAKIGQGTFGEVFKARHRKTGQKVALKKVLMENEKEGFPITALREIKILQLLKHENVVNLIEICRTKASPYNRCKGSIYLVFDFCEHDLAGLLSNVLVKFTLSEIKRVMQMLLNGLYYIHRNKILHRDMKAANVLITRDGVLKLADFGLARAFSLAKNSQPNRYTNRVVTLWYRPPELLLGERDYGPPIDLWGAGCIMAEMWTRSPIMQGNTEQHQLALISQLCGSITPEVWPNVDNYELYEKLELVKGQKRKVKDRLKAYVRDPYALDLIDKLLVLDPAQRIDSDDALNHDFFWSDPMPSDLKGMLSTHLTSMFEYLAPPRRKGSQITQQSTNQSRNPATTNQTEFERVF
Sequence of CDK9/cyclin T (O60563 whole entry partner): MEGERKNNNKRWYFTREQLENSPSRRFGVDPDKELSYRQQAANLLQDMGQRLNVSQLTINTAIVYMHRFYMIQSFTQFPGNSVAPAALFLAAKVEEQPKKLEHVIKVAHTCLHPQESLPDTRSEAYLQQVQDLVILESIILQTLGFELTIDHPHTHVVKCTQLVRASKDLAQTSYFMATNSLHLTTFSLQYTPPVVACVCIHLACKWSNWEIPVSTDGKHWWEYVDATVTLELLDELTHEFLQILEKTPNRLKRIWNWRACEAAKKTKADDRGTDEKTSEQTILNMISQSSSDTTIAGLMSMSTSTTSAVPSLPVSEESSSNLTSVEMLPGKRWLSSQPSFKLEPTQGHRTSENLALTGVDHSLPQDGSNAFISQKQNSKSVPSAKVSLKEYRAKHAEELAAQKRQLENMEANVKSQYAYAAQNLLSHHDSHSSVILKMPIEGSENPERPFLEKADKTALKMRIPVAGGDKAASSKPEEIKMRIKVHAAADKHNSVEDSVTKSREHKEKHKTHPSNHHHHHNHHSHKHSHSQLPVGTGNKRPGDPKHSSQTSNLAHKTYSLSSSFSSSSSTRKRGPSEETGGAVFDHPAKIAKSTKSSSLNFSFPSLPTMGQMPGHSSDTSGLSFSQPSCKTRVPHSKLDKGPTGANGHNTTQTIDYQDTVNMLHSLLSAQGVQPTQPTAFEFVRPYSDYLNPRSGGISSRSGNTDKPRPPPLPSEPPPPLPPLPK

[4] = biological target: CK1δ/ε; test: radiometric protein kinase assay; assay type: biochemical, porcine; conditions: for IC50: 15 μmol/L ATP, read-out: IC50 CK1; for Residual enzyme activity CK1: 10 µM concentration, ± SEM
[5] = biological target: T1, CDK2/cyclin A (Homo sapiens, UniProt P24941); test: radiometric protein kinase assay; assay type: biochemical; conditions: for IC50: 15 μmol/L ATP, read-out: IC50 CDK2/cyclinA; for Residual enzyme activity CDK2/cyclin A: 10 µM concentration, ± SEM
T1 construct: made in house

[6] = biological target: GSK-3; test: radiometric protein kinase assay; assay type: biochemical, porcine; conditions: for IC50: 15 μmol/L ATP, read-out: IC50 GSK3; for Residual enzyme activity GSK3: 10 µM concentration, ± SEM
[7] = biological target: CLK4 (Mus musculus, UniProt O35493); test: radiometric protein kinase assay; conditions: for Residual enzyme activity CLK 4: 10 µM concentration, ± SEM
Sequence of CLK4 (O35493 whole entry): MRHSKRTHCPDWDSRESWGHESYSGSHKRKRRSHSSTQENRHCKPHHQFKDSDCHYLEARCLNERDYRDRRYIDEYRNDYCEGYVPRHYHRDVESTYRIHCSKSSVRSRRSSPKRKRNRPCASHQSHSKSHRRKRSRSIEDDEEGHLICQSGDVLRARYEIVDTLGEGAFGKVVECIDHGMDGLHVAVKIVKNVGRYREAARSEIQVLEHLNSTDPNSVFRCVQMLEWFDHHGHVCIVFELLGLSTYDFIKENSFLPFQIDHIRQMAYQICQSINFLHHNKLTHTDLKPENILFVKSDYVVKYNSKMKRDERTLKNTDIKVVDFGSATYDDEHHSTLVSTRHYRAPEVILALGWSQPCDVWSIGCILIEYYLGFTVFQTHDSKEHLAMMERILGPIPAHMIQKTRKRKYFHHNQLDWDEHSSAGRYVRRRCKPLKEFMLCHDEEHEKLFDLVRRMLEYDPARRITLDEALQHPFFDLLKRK

[8] = biological target: DYRK1B (Homo sapiens, UniProt Q9Y463); test: radiometric protein kinase assay; assay type: biochemical; conditions: for IC50: 15 μmol/L ATP, read-out: IC50 DYRK 1B; for Residual enzyme activity DYRK 1B: 10 µM concentration, ± SEM
Sequence of DYRK1B (Q9Y463 whole entry): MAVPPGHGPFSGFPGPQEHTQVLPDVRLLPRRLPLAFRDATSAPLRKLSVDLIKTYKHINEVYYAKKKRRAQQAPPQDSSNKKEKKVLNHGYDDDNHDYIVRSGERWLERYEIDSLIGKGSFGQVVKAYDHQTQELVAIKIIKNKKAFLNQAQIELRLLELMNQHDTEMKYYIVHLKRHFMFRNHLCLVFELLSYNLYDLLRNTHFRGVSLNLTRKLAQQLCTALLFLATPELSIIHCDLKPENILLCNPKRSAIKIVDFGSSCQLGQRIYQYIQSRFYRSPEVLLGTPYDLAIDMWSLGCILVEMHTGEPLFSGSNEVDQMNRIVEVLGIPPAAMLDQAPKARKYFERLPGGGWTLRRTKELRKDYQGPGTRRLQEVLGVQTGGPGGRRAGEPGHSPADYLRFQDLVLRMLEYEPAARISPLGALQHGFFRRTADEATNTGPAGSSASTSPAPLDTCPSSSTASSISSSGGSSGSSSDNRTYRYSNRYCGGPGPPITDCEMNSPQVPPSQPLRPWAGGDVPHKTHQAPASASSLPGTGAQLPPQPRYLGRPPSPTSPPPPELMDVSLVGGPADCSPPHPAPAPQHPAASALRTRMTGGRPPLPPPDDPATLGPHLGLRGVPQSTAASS

[9] = biological target: CLK3 (Mus musculus, UniProt O35492); test: radiometric protein kinase assay; conditions: for Residual enzyme activity CLK 3: 10 µM concentration, ± SEM
Sequence of CLK3 (O35492 whole entry): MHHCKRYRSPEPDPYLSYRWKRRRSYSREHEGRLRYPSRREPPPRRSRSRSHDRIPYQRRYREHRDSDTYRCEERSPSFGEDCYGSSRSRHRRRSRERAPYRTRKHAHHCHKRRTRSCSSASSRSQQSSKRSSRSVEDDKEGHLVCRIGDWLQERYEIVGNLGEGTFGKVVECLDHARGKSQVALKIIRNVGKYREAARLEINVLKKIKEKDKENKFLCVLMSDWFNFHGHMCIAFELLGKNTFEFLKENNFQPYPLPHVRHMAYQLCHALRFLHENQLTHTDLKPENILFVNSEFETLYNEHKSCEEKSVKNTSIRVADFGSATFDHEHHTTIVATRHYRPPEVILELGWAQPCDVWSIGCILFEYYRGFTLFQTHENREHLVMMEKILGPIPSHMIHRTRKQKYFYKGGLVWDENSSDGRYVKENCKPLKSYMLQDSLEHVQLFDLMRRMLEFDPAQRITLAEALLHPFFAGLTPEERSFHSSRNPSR
Method: as §1, §2, §3, §4

[10] = biological target: DYRK1A (Homo sapiens, UniProt Q13627); test: radiometric protein kinase assay; assay type: biochemical; conditions: for IC50: 15 μmol/L ATP, read-out: IC50 DYRK 1A; for Residual enzyme activity DYRK 1A: 10 µM concentration, ± SEM
[11] = biological target: CLK1 (Mus musculus, UniProt P22518); test: radiometric protein kinase assay; conditions: for Residual enzyme activity CLK 1: 10 µM concentration, ± SEM
Sequence of CLK1 (P22518 whole entry): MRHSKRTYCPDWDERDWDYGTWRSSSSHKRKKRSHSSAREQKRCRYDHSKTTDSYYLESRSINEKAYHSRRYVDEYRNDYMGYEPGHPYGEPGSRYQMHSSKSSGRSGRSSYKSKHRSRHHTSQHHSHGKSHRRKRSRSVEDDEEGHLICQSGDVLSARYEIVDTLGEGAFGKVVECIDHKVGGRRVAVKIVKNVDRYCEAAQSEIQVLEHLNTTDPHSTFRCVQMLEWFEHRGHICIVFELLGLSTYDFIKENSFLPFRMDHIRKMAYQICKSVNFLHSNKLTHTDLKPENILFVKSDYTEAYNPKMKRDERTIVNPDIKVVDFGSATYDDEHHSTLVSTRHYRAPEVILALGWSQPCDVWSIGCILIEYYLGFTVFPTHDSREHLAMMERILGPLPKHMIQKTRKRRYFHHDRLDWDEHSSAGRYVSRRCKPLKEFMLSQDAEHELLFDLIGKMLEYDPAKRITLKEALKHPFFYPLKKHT

[12] = biological target: T2, CDK5/p25 (Homo sapiens, UniProt Q00535); test: radiometric protein kinase assay; assay type: biochemical; conditions: for IC50: 15 μmol/L ATP; for Residual enzyme activity CDK5/p25: 10 µM concentration, ± SEM
T2 construct: made in house
T2 sequence (Q00535 whole entry): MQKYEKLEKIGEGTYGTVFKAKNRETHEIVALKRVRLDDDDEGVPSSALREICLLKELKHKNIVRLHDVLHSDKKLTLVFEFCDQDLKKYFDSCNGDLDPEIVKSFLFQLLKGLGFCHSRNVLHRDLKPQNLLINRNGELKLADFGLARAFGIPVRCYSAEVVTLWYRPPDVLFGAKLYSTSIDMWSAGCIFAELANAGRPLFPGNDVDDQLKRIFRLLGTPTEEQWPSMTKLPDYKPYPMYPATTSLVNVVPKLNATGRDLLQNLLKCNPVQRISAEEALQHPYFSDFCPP
T2 sequence (Q15078 99-307 partner limits assumed): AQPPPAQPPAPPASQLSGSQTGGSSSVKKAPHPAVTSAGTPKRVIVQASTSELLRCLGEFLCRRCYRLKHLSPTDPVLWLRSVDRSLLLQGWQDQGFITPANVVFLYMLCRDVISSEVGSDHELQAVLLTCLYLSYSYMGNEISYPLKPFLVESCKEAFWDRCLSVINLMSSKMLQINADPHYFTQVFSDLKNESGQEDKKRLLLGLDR

[13] = biological target: T3, DYRK2 (Homo sapiens, UniProt Q92630); test: radiometric protein kinase assay; assay type: biochemical; conditions: for IC50: 15 μmol/L ATP, read-out: IC50 DYRK 2; for Residual enzyme activity DYRK 2: 10 µM concentration, ± SEM
T3 sequence (Q92630 1-601): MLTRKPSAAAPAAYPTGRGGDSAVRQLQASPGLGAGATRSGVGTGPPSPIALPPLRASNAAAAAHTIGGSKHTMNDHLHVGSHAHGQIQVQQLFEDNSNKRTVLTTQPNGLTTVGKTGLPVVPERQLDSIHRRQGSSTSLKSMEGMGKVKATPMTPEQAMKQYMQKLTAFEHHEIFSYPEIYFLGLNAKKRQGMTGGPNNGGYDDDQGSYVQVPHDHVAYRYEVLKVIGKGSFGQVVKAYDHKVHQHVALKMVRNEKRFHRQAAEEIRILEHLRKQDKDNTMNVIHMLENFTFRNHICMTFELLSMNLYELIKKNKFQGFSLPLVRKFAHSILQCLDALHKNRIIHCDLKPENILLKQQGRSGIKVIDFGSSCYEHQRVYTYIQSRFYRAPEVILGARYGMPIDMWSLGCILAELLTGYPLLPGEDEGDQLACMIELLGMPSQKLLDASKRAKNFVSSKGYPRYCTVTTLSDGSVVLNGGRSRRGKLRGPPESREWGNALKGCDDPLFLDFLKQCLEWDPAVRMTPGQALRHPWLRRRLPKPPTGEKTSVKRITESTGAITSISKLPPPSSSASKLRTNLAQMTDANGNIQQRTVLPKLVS

[14] = biological target: T4, DYRK3 (Homo sapiens, UniProt O43781); test: radiometric protein kinase assay; assay type: biochemical; conditions: for IC50: 15 μmol/L ATP, read-out: IC50 DYRK 3; for Residual enzyme activity DYRK 3: 10 µM concentration, ± SEM
T4 sequence (O43781 1-588): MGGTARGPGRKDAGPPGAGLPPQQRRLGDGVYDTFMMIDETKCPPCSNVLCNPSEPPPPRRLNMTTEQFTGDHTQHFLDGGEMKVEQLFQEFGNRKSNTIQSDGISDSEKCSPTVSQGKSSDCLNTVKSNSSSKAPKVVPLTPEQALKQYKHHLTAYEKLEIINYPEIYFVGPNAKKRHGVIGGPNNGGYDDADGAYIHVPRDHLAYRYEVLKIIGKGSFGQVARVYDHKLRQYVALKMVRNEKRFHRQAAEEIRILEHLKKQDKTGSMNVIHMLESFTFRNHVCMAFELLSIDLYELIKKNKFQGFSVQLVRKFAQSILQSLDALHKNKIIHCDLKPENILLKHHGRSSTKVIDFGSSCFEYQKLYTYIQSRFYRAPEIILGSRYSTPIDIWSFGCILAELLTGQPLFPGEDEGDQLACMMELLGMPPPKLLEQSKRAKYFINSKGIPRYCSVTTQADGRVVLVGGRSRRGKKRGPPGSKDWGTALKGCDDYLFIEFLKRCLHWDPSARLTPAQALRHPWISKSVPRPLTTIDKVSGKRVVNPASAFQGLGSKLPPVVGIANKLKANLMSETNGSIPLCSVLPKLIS

Compound | melting point | IC50 [1] [µM] | IC50 [3] [µM] | IC50 [4] [µM] | IC50 [5] [µM] | IC50 [6] [µM] | IC50 [10] [µM] | IC50 [11] [µM] | IC50 [12] [µM] | further results
O=C1NCc2c(Br)cc3c(-c4ccccc4)c[nH]c3c21 (as salt: sodium) [12a, 5-Bromo-3-phenyl-6,7-dihydropyrrolo[3,4-g]indol-8(1H)-one] | 226 to 227 °C |  |  |  |  |  |  |  |  | 
CN1Cc2ccc3c(-c4ccccc4)c[nH]c3c2C1=O (as salt: sodium) [12d, 7-Methyl-3-phenyl-6,7-dihydropyrrolo[3,4-g]indol-8(1H)-one] | 265 to 267 °C |  |  |  |  |  |  |  |  | 
O=C1NCc2ccc3c(-c4ccccc4)c[nH]c3c21 (as salt: sodium) [8a, 3-Phenyl-6,7-dihydropyrrolo[3,4-g]indol-8(1H)-one] | 294 to 295 °C |  |  |  |  |  |  |  |  | 
O=C1NCc2ccc3c(-c4cccc([N+](=O)[O-])c4)c[nH]c3c21 [8j, 3-(3-Nitrophenyl)-6,7-dihydropyrrolo[3,4-g]indol-8(1H)-one] | 237 to 238 °C (dec.) | > 10 | > 10 | > 10 | > 10 | > 10 | > 10 | 0.038 | > 10 | IC50 [2]: 0.37 µM; IC50 [7]: 0.061 µM; IC50 [8]: 1.5 µM; IC50 [9]: 8.5 µM; IC50 [13]: 4.9 µM; IC50 [14]: 1.9 µM
Cn1cc(-c2ccccc2)c2ccc3c(c21)C(=O)NC3 [15a, 1-Methyl-3-phenyl-6,7-dihydropyrrolo[3,4-g]indol-8(1H)-one] | 255 to 256 °C | > 10 | > 10 | > 10 | > 10 | > 10 | > 10 | 0.19 | > 10 | IC50 [2]: 1.1 µM; IC50 [7]: 0.16 µM; IC50 [8]: > 10 µM; IC50 [9]: > 10 µM; IC50 [13]: > 10 µM; IC50 [14]: > 10 µM
Cc1cccc(-c2c[nH]c3c4c(ccc23)CNC4=O)c1 (as salt: sodium) [8i, 3-(3-Methylphenyl)-6,7-dihydropyrrolo[3,4-g]indol-8(1H)-one] | 231 to 232 °C |  |  |  |  |  |  |  |  | 
O=C1NCc2ccc3c(-c4ccc(Cl)cc4)c[nH]c3c21 (as salt: sodium) [8d, 3-(4-Chlorophenyl)-6,7-dihydropyrrolo[3,4-g]indol-8(1H)-one] | 255 to 257 °C |  |  |  |  |  |  |  |  | 
O=C1NCc2ccc3c(-c4ccccc4Cl)c[nH]c3c21 [8b, 3-(2-Chlorophenyl)-6,7-dihydropyrrolo[3,4-g]indol-8(1H)-one] | 234 to 235 °C | > 10 | > 10 | > 10 | > 10 | > 10 | 1.1 | 0.14 | > 10 | 
O=C1NCc2ccc3c(-c4ccc(Cl)c(Cl)c4)c[nH]c3c21 (as salt: sodium) [8e, 3-(3,4-Dichlorophenyl)-6,7-dihydropyrrolo[3,4-g]indol-8(1H)-one] | 258 to 259 °C |  |  |  |  |  |  |  |  | 
CCn1cc(-c2ccccc2)c2ccc3c(c21)C(=O)NC3 [15b, 1-Ethyl-3-phenyl-6,7-dihydropyrrolo[3,4-g]indol-8(1H)-one] | 198 to 200 °C | > 10 | > 10 | > 10 | > 10 | > 10 | 3.9 | 0.38 | > 10 | 
CN1Cc2ccc3c(-c4ccccc4)c[nH]c3c2C1=O [12d, 7-Methyl-3-phenyl-6,7-dihydropyrrolo[3,4-g]indol-8(1H)-one] |  | > 10 | > 10 | > 10 | > 10 | > 10 | > 10 | > 10 | > 10 | IC50 [2]: > 10 µM; IC50 [7]: > 10 µM; IC50 [8]: > 10 µM; IC50 [9]: > 10 µM; IC50 [13]: > 10 µM; IC50 [14]: > 10 µM
CCc1[nH]c2c3c(ccc2c1-c1ccccc1)CNC3=O (as salt: sodium) [8l, 2-Ethyl-3-phenyl-6,7-dihydropyrrolo[3,4-g]indol-8(1H)-one] | 165 to 170 °C |  |  |  |  |  |  |  |  | 
Cc1ccc(-c2[nH]c3c4c(ccc3c2C)CNC4=O)cc1 [S18e] |  |  |  |  |  |  |  |  |  | Residual enzyme activity CDK1/cyclin B [1]: 100±20%; Residual enzyme activity CLK 2 [2]: 77±6%; Residual enzyme activity CDK9/cyclin T [3]: 101±3%; Residual enzyme activity CK1 [4]: 84±7%; Residual enzyme activity CDK2/cyclin A [5]: 102±9%; Residual enzyme activity GSK3 [6]: 120±31%; Residual enzyme activity CLK 4 [7]: 64±9%; Residual enzyme activity DYRK 1B [8]: 85±7%; Residual enzyme activity CLK 3 [9]: 105±10%; Residual enzyme activity DYRK 1A [10]: 99±16%; Residual enzyme activity CLK 1 [11]: 105±12%; Residual enzyme activity CDK5/p25 [12]: 114±11%; Residual enzyme activity DYRK 2 [13]: 75±11%; Residual enzyme activity DYRK 3 [14]: 92±9%
Cc1[nH]c2c3c(ccc2c1-c1ccccc1)CNC3=O (as salt: sodium) [8k, 2-Methyl-3-phenyl-6,7-dihydropyrrolo[3,4-g]indol-8(1H)-one] | 245 to 247 °C |  |  |  |  |  |  |  |  | 
Cc1[nH]c2c3c(ccc2c1C)C(=O)NC3=O [S19] |  |  |  |  |  |  |  |  |  | Residual enzyme activity CDK1/cyclin B [1]: 81±27%; Residual enzyme activity CLK 2 [2]: 33±7%; Residual enzyme activity CDK9/cyclin T [3]: 90±5%; Residual enzyme activity CK1 [4]: 65±5%; Residual enzyme activity CDK2/cyclin A [5]: 108±8%; Residual enzyme activity GSK3 [6]: 51±5%; Residual enzyme activity CLK 4 [7]: 21±1%; Residual enzyme activity DYRK 1B [8]: 39±5%; Residual enzyme activity CLK 3 [9]: 91±11%; Residual enzyme activity DYRK 1A [10]: 41±8%; Residual enzyme activity CLK 1 [11]: 52±10%; Residual enzyme activity CDK5/p25 [12]: 94±4%; Residual enzyme activity DYRK 2 [13]: 20±5%; Residual enzyme activity DYRK 3 [14]: 57±3%
CCOC(=O)Cn1cc(-c2ccccc2)c2ccc3c(c21)C(=O)NC3 [15d, Ethyl 2-(8-oxo-3-phenyl-7,8-dihydropyrrolo[3,4-g]indol-1(6H)-yl)acetate] | 226 to 227 °C | > 10 | > 10 | > 10 | > 10 | > 10 | > 10 | > 10 | > 10 | 
O=C1NCc2ccc3c(-c4ccc(Cl)c(Cl)c4)c[nH]c3c21 [8e, 3-(3,4-Dichlorophenyl)-6,7-dihydropyrrolo[3,4-g]indol-8(1H)-one] |  | > 10 | > 10 | > 10 | > 10 | > 10 | > 10 | 0.11 | > 10 | IC50 [2]: 0.69 µM; IC50 [7]: 0.13 µM; IC50 [8]: > 10 µM; IC50 [9]: > 10 µM; IC50 [13]: > 10 µM; IC50 [14]: > 10 µM
CN1Cc2ccc3c(-c4ccccc4)cn(C)c3c2C1=O [15e, 1,7-Dimethyl-3-phenyl-6,7-dihydropyrrolo[3,4-g]indol-8(1H)-one] |  | > 10 | > 10 | > 10 | > 10 | > 10 | > 10 | > 10 | > 10 | IC50 [2]: > 10 µM; IC50 [7]: > 10 µM; IC50 [8]: > 10 µM; IC50 [9]: > 10 µM; IC50 [13]: > 10 µM; IC50 [14]: > 10 µM
